US11396524B2, “Hydrate crystal of 3′,3′-cGAMP” (Yamasa Corporation, priority 2018, dated 2022)

Key:
Assay type in all cases: physicochemical
[1] = Hygroscopicity test: standing 3 days in desiccator at 30° C. and 93% humidity, moisture content by the Karl-Fischer method; conditions: for Moisture content after standing / Moisture content before standing: Karl-Fischer method; for Moisture content after standing: after standing 3 days at 30° C., humidity 93% (saturated potassium nitrate desiccator); for Moisture content before standing: before standing at 30° C.; for Moisture content before standing / Δ Moisture content: humidity 93%; for Δ Moisture content: after minus before standing 3 days at 30° C.
Description: A hydrate crystal of 3′,3′-cGAMP according to the invention may be either a crystal of alkali metal salt or a crystal of free acid. Either is less hygroscopic than existing powder. Thus, each is easy to handle in various purposes and is thus useful as a pharmaceutical raw material or the like. Note that the wording “less hygroscopic” herein refers to the case where after (A) allowed to stand for 1 day under conditions at a temperature of 30° C. and a humidity of 43% and then (B) allowed to stand for 3 days under conditions at a temperature of 30° C. and a humidity of 93%, a substance of interest has a moisture content of 25% or less at the end point (B) and the difference in the moisture content between the end point (A) and the end point (B) is within ±5%.
The crystals obtained in the above Examples 1 and 2 as well as the lyophilized product obtained in the Reference Example were allowed to stand for 3 days in a desiccator filled with a saturated potassium nitrate solution and kept at a temperature of 30° C. and a humidity of 93%. The moisture content was compared between before and after the standing by the Karl-Fischer method.

[2] = Stability test, crystals stored at 60° C.
Description: Meanwhile, the crystals were stored at 60° C. and subjected to a stability test.

[3] = Crystal moisture content by the Karl-Fischer method; conditions: for Moisture content after storage at a humidity of 43% for 1 day: stored at humidity 43% for 1 day
Description: In Example 1, the crystals of 3′,3′-cGAMP sodium salt were prepared. Here, the crystal moisture content immediately after drying was measured by the Karl-Fischer method. As a result, the moisture content was 7.9%. […] In addition, the crystals were stored at a humidity of 43% for 1 day so as to stabilize their moisture content. The moisture content was likewise measured.
The crystals of 3′,3′-cGAMP free acid as prepared in Example 2 were stored at a humidity of 43% for 1 day so as to stabilize their moisture content. Then, the crystal moisture content was measured by the Karl-Fischer method.

Substance | Moisture content after standing [1] [%] | Moisture content before standing [1] [%] | Δ Moisture content [1] [%] | Stability under high temperature conditions (decomposition of 3′,3′-cGAMP) [2] | Moisture content after storage at a humidity of 43% for 1 day [3] [%] | Moisture content after standing ([1]; sodium salt) [%] | Δ Moisture content ([1]; sodium salt) | Moisture content immediately after drying ([3]; immediately after drying) [%] | Moisture content before standing ([1]; sodium salt) [%]
3′,3′-cGAMP free acid [Example 2] | 23.09 | 24.71 | −1.62 | not apparently decomposed | 24.7 | – | – | – | –
3′,3′-cGAMP sodium salt [Example 1] | – | 18.10 | – | not apparently decomposed | 18.1 | 21.60 | +3.50% | 7.9 | –
3′,3′-cGAMP sodium salt [Reference Example, reference compound] | – | – | – | – | – | 36.01 | +23.07% | – | 12.94
